This note sets out measurements from patent US9975903B2, “Condensed heterocyclic compound” (Takeda Pharmaceutical Company Limited, priority 2014, dated 2018).

Structures can show the parent of a compound that is named as a salt.

The target in one assay is T1, Human recombinant enteropeptidase (Homo sapiens, UniProt P98073).
T1 construct: purchased ITSI-Biosciences LLC #REN-260
T1 sequence (P98073 whole entry): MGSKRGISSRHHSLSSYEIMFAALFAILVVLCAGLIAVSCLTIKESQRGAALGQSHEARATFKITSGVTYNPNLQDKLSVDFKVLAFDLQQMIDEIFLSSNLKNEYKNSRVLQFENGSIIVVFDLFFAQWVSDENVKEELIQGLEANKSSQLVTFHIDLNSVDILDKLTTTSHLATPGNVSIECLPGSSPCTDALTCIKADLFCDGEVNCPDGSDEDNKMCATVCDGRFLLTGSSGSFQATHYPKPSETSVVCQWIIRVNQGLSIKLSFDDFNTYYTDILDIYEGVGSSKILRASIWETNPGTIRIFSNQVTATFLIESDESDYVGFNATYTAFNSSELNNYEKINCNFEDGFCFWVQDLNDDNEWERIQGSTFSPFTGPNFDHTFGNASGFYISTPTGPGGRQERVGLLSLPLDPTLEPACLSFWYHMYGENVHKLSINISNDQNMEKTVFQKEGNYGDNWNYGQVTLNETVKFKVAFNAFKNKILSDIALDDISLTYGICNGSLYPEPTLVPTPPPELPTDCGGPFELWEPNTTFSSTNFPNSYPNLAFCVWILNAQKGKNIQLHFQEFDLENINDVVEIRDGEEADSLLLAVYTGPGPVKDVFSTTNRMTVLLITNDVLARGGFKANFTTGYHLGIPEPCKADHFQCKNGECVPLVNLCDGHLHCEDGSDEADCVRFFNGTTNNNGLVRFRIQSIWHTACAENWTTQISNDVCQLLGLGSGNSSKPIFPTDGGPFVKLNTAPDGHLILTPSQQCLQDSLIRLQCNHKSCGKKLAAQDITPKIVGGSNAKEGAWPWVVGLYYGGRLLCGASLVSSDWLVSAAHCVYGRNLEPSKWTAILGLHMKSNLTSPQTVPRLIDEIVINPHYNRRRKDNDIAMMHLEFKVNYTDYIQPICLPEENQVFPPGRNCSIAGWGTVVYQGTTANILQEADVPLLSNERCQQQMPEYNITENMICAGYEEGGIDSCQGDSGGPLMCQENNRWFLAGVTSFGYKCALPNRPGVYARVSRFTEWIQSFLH
As to the kind of experiment: Human enteropeptidase inhibitory activity (Test Example 1). The class given is biochemical. To be noted: 3.3 μM test compound; inhibition rate from fluorescence intensity at 2 hours after the start of the reaction. The gist of the method:
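Recombinant human enteropeptidase in 50 mM Tricine pH 8.0, 0.01% Tween 20, 10 mM CaCl2, with a 5FAM/CPQ2-quenched peptide substrate (2.1 μM solution before mixing). Compound came from 1 mM DMSO stock diluted 100-fold in buffer. Fluorescence (ex 485/em 535 nm) at 2 h gave % inhibition versus no-compound and no-enzyme controls.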
Consider “diethyl (4-(((10- carbamimidamido- 13-oxo-6,7,8,13- tetrahydro- dibenzo[b,f] [1,4]dioxecin-4- yl)carbonyl)amino) benzyl)phosphorate [Example 4]”, for which the “3.3 μM Inhibition” value stood at 98%.

On to “4-((((10- carbamimidamido- 13-oxo-6,7,8,13- tetrahydro- dibenzo[b,f] [1,4]dioxecin-4- yl)carbonyl) carboxymethyl) amino)methyl) thiophene-2- carboxylic acid [Example 125]”, for which the “3.3 μM Inhibition” value stood at 100%.

The assay is the same for the next values; noted with them: 3.3 μM test compound; inhibition rate from fluorescence intensity at 2 hours after the start of the reaction; read-out: 3.3 μM Inhibition.
Take `N=C(N)Nc1ccc2c(c1)CCCCc1cc3c(cc1OC2=O)OC[C@H]3CC(=O)NCCS(=O)(=O)O` [Example 35, 2-((((10S)-3-carbamimidamido-15-oxo-5,7,8,10,11,15-hexahydro-6H-12,14-dioxabenzo[5,6]cyclodeca[1,2-f]inden-10-yl)acetyl)amino)ethane-sulfonic acid]: the inhibition at 3.3 µM worked out at 90%.

For `N=C(N)Nc1ccc2c(c1)CCCOc1c(cccc1C(=O)N(CC(=O)O)CC(=O)N(CC(=O)O)Cc1cccc(C(=O)O)c1)OC2=O` [Example 141, N-((10-Carbamimidamido-13-oxo-6,7,8,13-tetrahydrodibenzo[b,f][1,4]dioxecin-4-yl)carbonyl)-N-(carboxymethyl)glycyl-N-(3-carboxybenzyl)glycine], the inhibition at 3.3 µM amounted to 100%.

Turning to `N=C(N)Nc1ccc2c(c1)CCCOc1c(cccc1C(=O)N(CC(=O)O)CC(=O)N(CC(=O)O)Cc1ccccc1)OC2=O` [Example 140, N-((10-Carbamimidamido-13-oxo-6,7,8,13-tetrahydrodibenzo[b,f][1,4]dioxecin-4-yl)carbonyl)-N-(carboxymethyl)glycyl-N-benzylglycine], the inhibition at 3.3 µM was 100%.

With `N=C(N)Nc1ccc2c(c1)OCCCc1c(cccc1C(=O)N[C@@H](CC(=O)O)C(=O)O)OC2=O` [Example 84, N-((3-carbamimidamido-14-oxo-7,8-dihydro-6H,14H-dibenzo[b,f][1,5]dioxecin-9-yl)carbonyl)-L-aspartic acid], the inhibition at 3.3 µM is 101%.

Regarding `C[C@@H](C(=O)O)N(Cc1cccc(C(=O)O)c1)C(=O)c1cccc2c1OCCCc1cc(NC(=N)N)ccc1C(=O)O2` [Example 135, 3-((((10-Carbamimidamido-13-oxo-6,7,8,13-tetrahydrodibenzo[b,f][1,4]dioxecin-4-yl)carbonyl) ((1S)-1-carboxyethyl)amino)methyl)benzoic acid], the inhibition at 3.3 µM was found to be 100%.

`C[C@@H]1CCc2cc(NC(=N)N)ccc2C(=O)Oc2cccc(C(=O)N[C@@H](CC(=O)O)C(=O)O)c2C1` [Example 20, N-((3-carbamimidamido-7-methyl-14-oxo-6,7,8,14-tetrahydro-6H-dibenzo[b,h]oxecin-9-yl)carbonyl)-L-aspartic acid]: the inhibition at 3.3 µM was 102%.

Take `N=C(N)Nc1ccc2c(c1)CCCOc1c(ccc(CCC(=O)N(CC(=O)O)CC(=O)O)c1C(=O)O)OC2=O` [Example 129, 3-(3-(bis(carboxy-methyl)amino)-3-oxopropyl)-10-carbamimidamido-13-oxo-6,7,8,13-tetrahydro-dibenzo[b,f] [1,4]dioxecine-4-carboxylic acid]: the inhibition at 3.3 µM worked out at 100%.

Take `N=C(N)Nc1ccc2c(c1)CCOc1c(cccc1C(=O)N[C@@H](CC(=O)O)C(=O)O)OC2=O` [Example 13, N-((9-Carbamimidamido-6-oxo-11,12-dihydro-6H-dibenzo[b,f][1,4]dioxonin-1-yl)carbonyl)-L-aspartic acid trifluoroacetate]: the inhibition at 3.3 µM is 101%.

As for `N=C(N)Nc1ccc2c(c1)CCCOc1c(cccc1C(=O)N(CCC(=O)O)[C@@H](CC(=O)O)C(=O)O)OC2=O` [Example 138, N-((10-carbamimidamido-13-oxo-6,7,8,13-tetrahydro-dibenzo[b,f] [1,4]dioxecin-4-yl)carbonyl)-N-(2-carboxyethyl)-L-aspartic acid], the inhibition at 3.3 µM is 100%.

Take `COC(=O)[C@H](CS(=O)(=O)O)NC(=O)c1cccc2c1OCCCc1cc(NC(=N)N)ccc1C(=O)O2` [Example 7, 10-carbamimidamido-4-(((2R)-1-methoxy-1-oxo-3-sulfopropan-2-yl)carbamoyl)-13-oxo-6,7,8,13-tetrahydro-dibenzo[b,f] [1,4]dioxecine]: the inhibition at 3.3 µM amounted to 102%.

Take `N=C(N)Nc1ccc2c(c1)CCCOc1c(cccc1C(=O)N[C@@H](CO)C(=O)O)OC2=O` [Example 86, N-((10-carbamimidamido-13-oxo-6,7,8,13-tetrahydro-dibenzo[b,f] [1,4]dioxecin-4-yl)carbonyl)-L-serine]: the inhibition at 3.3 µM is 101%.

As to `N=C(N)Nc1ccc2c(c1)CCc1ccccc1OC2=O` [Example 58, 1-(6-Oxo-11,12-dihydro-6H-dibenzo[b,f]oxocin-9-yl)guanidine trifluoroacetate], the inhibition at 3.3 µM stood at 55%.

On to `COc1ccc(C[C@H](NC(=O)c2c(CCC(=O)O)ccc3c2OCCCc2cc(NC(=N)N)ccc2C(=O)O3)C(=O)O)cc1` [Example 112, N-((10-carbamimidamido-3-(2-carboxyethyl)-13-oxo-6,7,8,13-tetrahydro-dibenzo[b,f] [1,4]dioxecin-4-yl)carbonyl)-O-methyl-L-tyrosine], for which the inhibition at 3.3 µM is 99%.

With `N=C(N)Nc1ccc2c(c1)CCOc1c(cccc1C(=O)NCCS(=O)(=O)O)OC2=O` [Example 15, 2-(((9-carbamimidamido-6-oxo-11,12-dihydro-6H-dibenzo[b,f][1,4]dioxonin-1-yl)carbonyl)amino) ethanesulfonic acid], the inhibition at 3.3 µM turned out to be 101%.

Take `N=C(N)Nc1ccc2c(c1)CCCOc1c(ccc(CCC(=O)O)c1C(=O)O)OC2=O` [Example 111, 10-carbamimidamido-3-(2-carboxyethyl)-13-oxo-6,7,8,13-tetrahydro-dibenzo[b,f] [1,4]dioxecine-4-carboxylic acid]: the inhibition at 3.3 µM was determined as 100%.

Consider `N=C(N)Nc1ccc2c(c1)CCCOc1c(cccc1C(=O)N[C@@H](CS(=O)(=O)O)C(=O)O)OC2=O` [Example 6, N-((10-Carbamimidamido-13-oxo-6,7,8,13-tetrahydrodibenzo[b,f][1,4]dioxecin-4-yl)carbonyl)-3-sulfo-L-alanine], for which the inhibition at 3.3 µM is 101%.

Turning to `CN(C(=O)c1c(CCC(=O)O)ccc2c1OCCCc1cc(NC(=N)N)ccc1C(=O)O2)[C@@H](CC(=O)O)C(=O)O` [Example 118, N-((10-Carbamimidamido-3-(2-carboxyethyl)-13-oxo-6,7,8,13-tetrahydrodibenzo[b,f][1,4]dioxecin-4-yl)carbonyl)-N-methyl-L-aspartic acid], the inhibition at 3.3 µM turned out to be 101%.

Take `CN(CC(=O)N(C)[C@@H](CC(=O)O)C(=O)O)C(=O)c1cccc2c1OCCCc1cc(NC(=N)N)ccc1C(=O)O2` [Example 105, N-((10-carbamimidamido-13-oxo-6,7,8,13-tetrahydro-dibenzo[b,f] [1,4]dioxecin-4-yl)carbonyl)-N-methylglycyl-N-methyl-L-aspartic acid]: the inhibition at 3.3 µM amounted to 101%.

`N=C(N)Nc1ccc2c(c1)CCCCc1c(cc3c(c1C(=O)N[C@@H](CC(=O)O)C(=O)O)CCO3)OC2=O` [Example 40, N-((3-Carbamimidamido-15-oxo-5,7,8,10,11,15-hexahydro-6H-12,14-dioxabenzo[5,6]cyclodeca[1,2-f]inden-9-yl)carbonyl)-L-aspartic acid]: the inhibition at 3.3 µM is 100%.

Take `N=C(N)Nc1ccc2c(c1)CCCCc1c(cc3c(c1C(=O)NCCS(=O)(=O)O)CCO3)OC2=O` [Example 36, 2-(((3-carbamimidamido-15-oxo-5,7,8,10,11,15-hexahydro-6H-12,14-dioxabenzo[5,6]cyclodeca[1,2-f]inden-9-yl)carbonyl)amino)ethane-sulfonic acid]: the inhibition at 3.3 µM is 94%.

Turning to `N=C(N)Nc1ccc2c(c1)OCCCOc1c(CCC(=O)N[C@@H](CC(=O)O)C(=O)O)cccc1OC2=O` [Example 43, N-(3-(3-Carbamimidamido-15-oxo-7,8-dihydro-6H, 15H-dibenzo[b,f][1,4,8]trioxacycloundecin-10-yl)propanoyl)aspartic acid trifluoroacetate], the inhibition at 3.3 µM was 101%.

In the case of `N=C(N)c1ccc2c(c1)CCc1cc(CCC(=O)N[C@@H](CC(=O)O)C(=O)O)ccc1C(=O)O2` [Example 60, N-(3-(2-carbamimidoyl-6-oxo-11,12-dihydro-6H-dibenzo[b,f]oxocin-9-yl)propanoyl)-L-aspartic acid], the inhibition at 3.3 µM amounted to 59%.

Turning to `N=C(N)Nc1ccc2c(c1)CCCOc1c(cccc1C(=O)N(CCC(=O)O)CC(=O)O)OC2=O` [Example 64, N-((10-carbamimidamido-13-oxo-6,7,8,13-tetrahydro-dibenzo[b,f] [1,4]dioxecin-4-yl)carbonyl)-N-(carboxymethyl)-beta-alanine], the inhibition at 3.3 µM is 101%.

Take `N=C(N)Nc1ccc2c(c1)CCCOc1c(cccc1C(=O)O)OC2=O` [Example 29, 10-carbamimidamido-13-oxo-6,7,8,13-tetrahydro-dibenzo[b,f] [1,4]dioxecine-4-carboxylic acid]: the inhibition at 3.3 µM is 101%.

Regarding `N=C(N)Nc1ccc2c(c1)CCCOc1cc(C(=O)N[C@H](CC(=O)O)C(=O)O)ccc1OC2=O` (stereo in doubt) [Example 45, N-((10-carbamimidamido-13-oxo-6,7,8,13-tetrahydro-dibenzo[b,f] [1,4]dioxecin-3-yl)carbonyl)aspartic acid], the inhibition at 3.3 µM stood at 100%.

Turning to `N=C(N)Nc1ccc2c(c1)CCCOc1c(ccc(CCC(=O)O)c1C(=O)N(CC(=O)O)Cc1cccc(CN(CC(=O)O)CC(=O)O)c1)OC2=O` [Example 148, 3-(4-((3-((bis(carboxymethyl)amino)methyl)-benzyl) (carboxymethyl)carbamoyl)-10-carbamimidamido-13-oxo-6,7,8,13-tetrahydro-dibenzo[b,f] [1,4]dioxecin-3-yl)propanoic acid], the inhibition at 3.3 µM turned out to be 101%.

In general, inhibition refers to the change of the read-out against control, counted positive when it falls.
